How the values were obtained:
Assay in all cases: relative viability (nuclei count vs DMSO), 5 days (fraction); higher = more cells survive
[1] = compound: C[C@@]1(C(=O)Nc2ccc(F)nc2)CCCN1c1nc(Nc2cc(C3CC3)n[nH]2)c2cccn2n1 + O=C(c1cc(Cc2n[nH]c(=O)c3ccccc23)ccc1F)N1CCN(C(=O)C2CC2)CC1 [Olaparib] (partner 8 µM)
Outline: (§1)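 After 5 days of treatment, lung cancer cells in 1536-well plates were fixed and stained in a single step (final 0.05% Triton X-100, 1% formaldehyde, 1 ug/ml Hoechst) and their nuclei counted on 4× images. Treatment had been applied by pin tool the day after seeding as one drug alone or as a fixed anchor-drug dose with five library-drug doses (not always all listed) in √10 steps. Relative viability is the nuclei count of treated wells divided by that of vehicle wells, and values are medians of duplicate plates.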

Motesanib + Trametinib = compound: CC1(C)CNc2cc(NC(=O)c3cccnc3NCc3ccncc3)ccc21 [Motesanib] + CC(=O)Nc1cccc(-n2c(=O)n(C3CC3)c(=O)c3c(Nc4ccc(I)cc4F)n(C)c(=O)c(C)c32)c1 [Trametinib] (partner 0.02 µM)
Outline: as §1

Motesanib + Luminespib = compound: CC1(C)CNc2cc(NC(=O)c3cccnc3NCc3ccncc3)ccc21 [Motesanib] + CCNC(=O)c1noc(-c2cc(C(C)C)c(O)cc2O)c1-c1ccc(CN2CCOCC2)cc1 [Luminespib] (partner 0.01 µM)
Outline: as §1

[2] = compound: C[C@@]1(C(=O)Nc2ccc(F)nc2)CCCN1c1nc(Nc2cc(C3CC3)n[nH]2)c2cccn2n1 + CS(=O)(=O)N1CCN(Cc2cc3nc(-c4cccc5[nH]ncc45)nc(N4CCOCC4)c3s2)CC1 [Pictilisib] (partner 1 µM)
Outline: as §1

| Cell Line | relative viability ([1]; first compound 0.04 µM) | relative viability ([1]; first compound 0.1265 µM) | relative viability ([1]; first compound 0.4 µM) | relative viability ([1]; first compound 1.265 µM) | relative viability (Motesanib + Trametinib; first compound 0.01 µM) | relative viability (Motesanib + Trametinib; first compound 0.03162 µM) | relative viability (Motesanib + Trametinib; first compound 0.1 µM) | relative viability (Motesanib + Trametinib; first compound 0.3162 µM) | relative viability (Motesanib + Trametinib; first compound 1 µM) | relative viability (Motesanib + Luminespib; first compound 0.01 µM) | relative viability (Motesanib + Luminespib; first compound 0.03162 µM) | relative viability (Motesanib + Luminespib; first compound 0.1 µM) | relative viability (Motesanib + Luminespib; first compound 0.3162 µM) | relative viability (Motesanib + Luminespib; first compound 1 µM) | relative viability ([2]; first compound 0.04 µM) | relative viability ([2]; first compound 0.1265 µM) | relative viability ([2]; first compound 0.4 µM) | relative viability ([2]; first compound 1.265 µM) |
| --- | --- | --- | --- | --- | --- | --- | --- | --- | --- | --- | --- | --- | --- | --- | --- | --- | --- | --- |
| LXF-289 | 1.07 | 1.1 | 0.933 | 1.07 | 0.624 | 0.684 | 0.689 | 0.728 | 0.704 | 0.639 | 0.71 | 0.655 | 0.724 | 0.743 | 0.739 | 0.657 | 0.567 | 0.628 |
| NCI-H23 | 0.252 | 0.227 | 0.225 | 0.21 | 0.392 | 0.341 | 0.37 | 0.432 | 0.382 | – | 0.193 | 0.209 | 0.205 | 0.222 | 0.583 | 0.371 | 0.396 | 0.342 |
| NCI-H322M | 0.473 | 0.552 | 0.596 | 0.664 | 0.471 | 0.558 | 0.554 | 0.527 | 0.545 | 0.913 | 0.951 | 0.88 | 0.842 | 0.949 | 0.479 | 0.376 | 0.371 | 0.507 |
| NCI-H358 | 0.477 | 0.311 | 0.183 | 0.233 | 0.13 | 0.137 | 0.129 | 0.163 | 0.138 | 0.317 | 0.333 | 0.402 | 0.479 | 0.369 | 0.259 | 0.237 | 0.173 | 0.277 |
| NCI-H441 | 0.373 | 0.368 | 0.345 | 0.332 | 0.41 | 0.435 | 0.463 | 0.577 | 0.472 | 0.274 | 0.314 | 0.333 | 0.302 | 0.269 | 0.455 | 0.337 | 0.36 | 0.375 |
| NCI-H522 | 0.66 | 0.588 | 0.615 | 0.596 | 0.815 | 0.848 | 0.823 | 0.831 | 0.84 | – | 1.14 | 1.22 | 1.18 | 1.1 | – | – | – | – |
| NCI-H1299 | 0.976 | 0.97 | 0.887 | 0.964 | – | – | – | – | – | – | – | – | – | – | 0.752 | 0.844 | 0.669 | 0.286 |
| NCI-H1563 | – | – | – | – | – | – | – | – | – | 0.523 | 0.504 | 0.54 | 0.542 | 0.487 | 0.625 | 0.614 | 0.596 | 0.598 |
| NCI-H1623 | – | – | – | – | – | – | – | – | – | 0.605 | 0.506 | 0.49 | 0.306 | 0.515 | – | – | – | – |
| NCI-H1648 | 0.446 | 0.746 | 0.422 | 0.7 | 0.433 | – | – | 0.566 | 0.471 | – | – | – | – | – | – | – | – | – |
| NCI-H1703 | 0.402 | 0.428 | 0.421 | 0.357 | – | – | – | – | – | – | – | – | – | – | 0.25 | 0.224 | 0.227 | 0.213 |
| NCI-H2342 | 0.438 | 0.449 | 0.336 | 0.329 | 0.933 | 0.715 | 0.907 | 0.77 | 0.959 | 0.647 | 0.622 | 0.795 | 0.642 | 0.841 | – | – | – | – |
| SW 900 | 1.02 | 0.895 | 0.721 | 0.717 | 0.855 | 0.764 | 0.938 | 0.683 | 0.848 | 0.172 | 0.181 | 0.182 | 0.168 | 0.167 | – | – | – | – |
